Test results: patent US7846945B2, “Piperdine-based inhibitors of sodium glucose co-transporter 2 and methods of their use” (Lexicon Pharmaceuticals, Inc., priority 2007, dated 2010)

biological target: T1, Human sodium/glucose co-transporter type 2 (SGLT2) (Homo sapiens, UniProt P31639); assay: In vitro human SGLT2 inhibition assay (14C-AMG uptake); assay type: cell-based; settings: HEK293 cells expressing human HA-SGLT2; potent = SGLT2 IC50 of less than about 500 nM; read-out: SGLT2 IC50 (potent SGLT2 inhibitor mark)
T1 construct: HA; expressed in transfected cells
T1 sequence (P31639 1-672): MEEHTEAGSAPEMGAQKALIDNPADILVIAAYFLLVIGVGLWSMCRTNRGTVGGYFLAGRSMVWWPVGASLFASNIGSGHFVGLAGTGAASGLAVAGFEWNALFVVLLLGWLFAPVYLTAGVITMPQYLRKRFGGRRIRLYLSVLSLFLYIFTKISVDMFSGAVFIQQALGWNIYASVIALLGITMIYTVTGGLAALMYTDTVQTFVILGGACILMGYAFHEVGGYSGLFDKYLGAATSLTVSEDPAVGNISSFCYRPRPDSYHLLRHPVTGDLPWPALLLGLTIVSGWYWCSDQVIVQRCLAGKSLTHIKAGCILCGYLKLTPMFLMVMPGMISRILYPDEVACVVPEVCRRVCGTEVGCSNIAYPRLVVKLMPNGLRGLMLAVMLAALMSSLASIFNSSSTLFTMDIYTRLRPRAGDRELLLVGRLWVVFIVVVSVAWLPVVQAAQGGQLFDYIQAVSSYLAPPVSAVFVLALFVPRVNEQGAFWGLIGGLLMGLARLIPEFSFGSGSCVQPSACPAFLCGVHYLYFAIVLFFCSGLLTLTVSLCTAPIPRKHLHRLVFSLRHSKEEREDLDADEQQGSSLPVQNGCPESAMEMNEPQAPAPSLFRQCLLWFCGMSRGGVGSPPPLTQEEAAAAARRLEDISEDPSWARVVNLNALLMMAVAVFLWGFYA
Experimental: HEK293 cells were transfected with the human HA-SGLT2-pIRESpuro2 vector and the bulk stable cell line was selected in presence of 0.5 μg/ml of puromycin. Human HA-SGLT2 cells were maintained in DMEM media containing 10% FBS, 1% GPS and 0.5 μg/ml of puromycin.
The HEK293 cells expressing the human HA-SGLT2 were seeded in 384 well plates (30,000 cells/well) in DMEM media containing 10% FBS, 1% GPS and 0.5 μg/ml of puromycin, then incubated overnight at 37 C, 5% CO2. Cells were then washed with uptake buffer (140 mM NaCl, 2 mM KCl, 1 mM CaCl2, 1 mM MgCl2, 10 mM HEPES, 5 mM Tris, 1 mg/ml bovine serum albumin (BSA), pH 7.3). Twenty microliters of uptake buffer with or without testing compounds were added to the cells. Then, 20 microliters of uptake buffer containing ^14C-AMG (100 nCi) were added to the cells. The cell plates were incubated at 37° C., 5% CO2 for 1-2 hours. After washing the cells with uptake buffer, scintillation fluid was added (40 microliters/well) and ^14C-AMG uptake was measured by counting radioactivity using a scintillation coulter (TopCoulter NXT; Packard Instruments).
The IC50 of a compound with regard to a given target is determined by fitting the relevant data, using the Levenburg Marquardt algorithm, to the equation: y=A+((B−A)/(1+((C/x)^D))) wherein A is the minimum y value; B is the maximum y value; C is the IC50; and D is the slope.

| Compound | IC50 [nM] |
| --- | --- |
| CCOc1ccc(Cc2cc([C@@H]3O[C@H](SCCO)[C@@H](O)[C@H](O)[C@H]3O)ccc2Cl)cc1 [(2S,3R,4R,5S,6R)-2-[4-Chloro-3-(4-ethoxy-benzyl)-phenyl]-6-(2-hydroxy-ethylsulfanyl)-tetrahydro-pyran-3,4,5-triol] | < 500 |
| CCOc1ccc(Cc2cc([C@@H]3O[C@H](SC4CCOC4C)[C@@H](O)[C@H](O)[C@H]3O)ccc2Cl)cc1 (stereo partly drawn) [(2S,3R,4R,5S,6R)-2-[4-Chloro-3-(4-ethoxy-benzyl)-phenyl]-6-(2-methyl-tetrahydro-furan-3-ylsulfanyl)-tetrahydro-pyran-3,4,5-triol] | < 500 |
| CCOc1ccc(Cc2cc([C@@H]3O[C@H](SCCC(C)C)[C@@H](O)[C@H](O)[C@H]3O)ccc2Cl)cc1 [(2S,3R,4R,5S,6R)-2-[4-Chloro-3-(4-ethoxy-benzyl)-phenyl]-6-(3-methyl-butylsulfanyl)-tetrahydro-pyran-3,4,5-triol] | < 500 |
| CCOc1ccc(Cc2cc([C@@H]3O[C@H](SCc4ccco4)[C@@H](O)[C@H](O)[C@H]3O)ccc2Cl)cc1 [(2S,3R,4R,5S,6R)-2-[4-Chloro-3-(4-ethoxy-benzyl)-phenyl]-6-(furan-2-ylmethylsulfanyl)-tetrahydro-pyran-3,4,5-triol] | < 500 |
| CCOc1ccc(Cc2cc([C@@H]3O[C@H](SC4CCCC4)[C@@H](O)[C@H](O)[C@H]3O)ccc2Cl)cc1 [(2S,3R,4R,5S,6R)-2-[4-Chloro-3-(4-ethoxy-benzyl)-phenyl]-6-cyclopentylsulfanyl-tetrahydro-pyran-3,4,5-triol] | < 500 |
| CCOc1ccc(Cc2cc([C@@H]3O[C@H]([S+]([O-])CC)[C@@H](O)[C@H](O)[C@H]3O)ccc2Cl)cc1 (stereo partly drawn) [(2S,3R,4R,5S,6R)-2-[4-Chloro-3-(4-ethoxy-benzyl)-phenyl]-6-ethanesulfinyl-tetrahydro-pyran-3,4,5-triol] | < 500 |
| CCOc1ccc(Cc2cc([C@@H]3O[C@H](SCC)[C@@H](O)[C@H](O)[C@H]3O)ccc2Cl)cc1 [(2S,3R,4R,5S,6R)-2-[4-Chloro-3-(4-ethoxy-benzyl)-phenyl]-6-ethylsulfanyl-tetrahydro-pyran-3,4,5-triol] | < 500 |
| CCOc1ccc(Cc2cc([C@@H]3O[C@H]([S+](C)[O-])[C@@H](O)[C@H](O)[C@H]3O)ccc2Cl)cc1 (stereo partly drawn) [(2S,3R,4R,5S,6R)-2-[4-Chloro-3-(4-ethoxy-benzyl)-phenyl]-6-methanesulfinyl-tetrahydro-pyran-3,4,5-triol] | < 500 |
| CCOc1ccc(Cc2cc([C@@H]3O[C@H](SC)[C@@H](O)[C@H](O)[C@H]3O)ccc2Cl)cc1 [(2S,3R,4R,5S,6R)-2-[4-Chloro-3-(4-ethoxy-benzyl)-phenyl]-6-methylsulfanyl-tetrahydro-pyran-3,4,5-triol] | < 500 |
| CCOc1ccc(Cc2cc([C@@H]3O[C@H](Oc4ccccc4)[C@@H](O)[C@H](O)[C@H]3O)ccc2Cl)cc1 [(2S,3R,4R,5S,6R)-2-[4-Chloro-3-(4-ethoxy-benzyl)-phenyl]-6-phenoxy-tetrahydro-pyran-3,4,5-triol] | < 500 |
| CO[C@H]1O[C@@H](c2ccc(Cl)c(Cc3ccc(O[C@@H]4CCOC4)cc3)c2)[C@H](O)[C@@H](O)[C@@H]1O [(2S,3R,4R,5S,6S)-2-(4-Chloro-3-{4-[(R)-(tetrahydro-furan-3-yl)oxy]-benzyl}-phenyl)-6-methoxy-tetrahydro-pyran-3,4,5-triol] | < 500 |
| CCOc1ccc(Cc2cc([C@@H]3O[C@H](OCCO)[C@@H](O)[C@H](O)[C@H]3O)ccc2Cl)cc1 [(2S,3R,4R,5S,6S)-2-[4-Chloro-3-(4-ethoxy-benzyl)-phenyl]-6-(2-hydroxy-ethoxy)-tetrahydro-pyran-3,4,5-triol] | < 500 |
| CCOc1ccc(C(O)c2cc([C@@H]3O[C@H](OC)[C@@H](O)[C@H](O)[C@H]3O)ccc2Cl)cc1 (stereo partly drawn) [(2S,3R,4R,5S,6S)-2-{4-Chloro-3-[(4-ethoxy-phenyl)-hydroxy-methyl]-phenyl}-6-methoxy-tetrahydro-pyran-3,4,5-triol] | < 500 |
